Measured values as given in patent US11345702B1 (Myoforte Therapeutics, Inc., priority 2020, dated 2022).

Experiments:
15-PGDH/HPGD = 15-PGDH/HPGD (Homo sapiens (Human), UniProt P15428); assay: hPGDH inhibitor screening biochemical assay; conditions: read-out: hPGDH: Average IC50
In short: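 Ten-point dose-response inhibition of 15-PGDH measured by fluorescence (340/485 nm) after 10 min at room temperature with PGE2 (15 μM) and NAD+ (0.25 mM), following 10 min enzyme (10 nM)–compound pre-incubation at 37 °C. Buffer: 50 mM Tris-HCl pH 7.5, 0.01% Tween 20. Percent inhibition relative to 1% DMSO; four-parameter IC50.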

A549 cells = assay: A549 cell-based assay (PGE2 level)
Protocol: 30,000 A549 cells per well were seeded into a tissue culture treated flat bottom 96 well plate, and incubated for 24 hours in a 37° C., […] incubator. After 24 hours of incubation, complete media were replaced with 100 μL of low serum (F12K+1% FBS) media and the plate was incubated for 24 hours in a 37° C., 5% CO2 incubator. After 24 hours of incubation, low serum media was replaced with 80 μL of complete medium (F12K+10% FBS) and 10 μL (10× concentration) of compounds were added and incubated at 37° C. for 30 minutes followed by stimulation of 10 μL (10× concentration) of IL-1b (Final concentration 0.25 ng/mL) overnight in a 37° C., […] incubator. After 24 hours of incubation, the supernatant was collected and the PGE2 level was detected by using Cisbio HTRF kit (Catalog #62P2APEH). Briefly, 5 μL of sample (100-Fold diluted) was dispensed into each sample well. 5 μL of each Prostaglandin E2 standard (Std 0-Std 7) was dispensed into each standard well. 2.5 μL of Prostaglandin E2-d2 working solution was added to all wells except negative controls and 2.5 μL of Anti-Prostaglandin E2-Eu3+ Cryptate working solution was added to all wells. […] After 5 hours of incubation, the plate sealer was removed and the plate was read on a HTRF® compatible reader. Delta F and PGE2 level were calculated as per kit instructions. % Fold change was calculated with respect to DMSO control wells.

Solubility at pH 7.4 = format: physicochemical; conditions: pH 7.4
[1] = Liver microsome stability assay (HLM); format: in vitro ADME; conditions: human liver microsomes
Protocol: (§1) A microsomal mixture (microsomes and Kphos buffer) was prepared at a concentration of 1.428 mg/mL in 2 mL tubes. To this microsomal mixture 1.6 μL (1 mM) of test compound and positive control were spiked; from this mixture, 70 μL was transferred to 96 well plate and pre-incubated at 37° C. for 5 min. After pre-incubation, the zero minute time point reaction was stopped using 100 μL of ice-cold acetonitrile containing internal standard and […] (3.33 mM in Kphos buffer) was added. The 45 minute time point reaction was initiated by addition of 30 μL of NADPH (3.33 mM in Kphos buffer) and incubated at 37° C. for 15 and 45 min. Reactions without NADPH and buffer controls (minus NADPH) at 0, 15, and 45 minutes were also incubated to rule out non-NADPH metabolism or chemical instability in the incubation buffer. Incubation reactions were stopped with 100 μL of ice-cold acetonitrile containing internal standard. The plates were centrifuged at 4000 RPM for 15 min and 100 μL aliquots were submitted for analysis by LC-MS/MS. (Verapamil in human liver microsomes (HLM) and rat liver microsomes (RLM) was used as positive controls. Imipramine in mouse liver microsomes (MLM) was used as a positive control.) Samples were monitored for parent compound disappearance in MRM mode (multiple reaction monitoring) using LC-MS/MS. The peak area ratios of analyte versus internal standard were used to calculate the % remaining at the end of 45 minutes in the presence of NADPH.

[2] = Liver microsome stability assay (RLM); format: in vitro ADME; conditions: rat liver microsomes
Protocol: as §1

[3] = Liver microsome stability assay (MLM); format: in vitro ADME; conditions: mouse liver microsomes
In short: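 Mouse, rat or human liver microsomes (mixture at 1.428 mg/mL) in potassium phosphate buffer, 37 °C, incubated with compound after NADPH addition; minus-NADPH controls included. Parent loss by LC-MS/MS (MRM) with internal standard; value is % remaining at 45 min with NADPH.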

Sequence of 15-PGDH/HPGD (P15428 whole entry): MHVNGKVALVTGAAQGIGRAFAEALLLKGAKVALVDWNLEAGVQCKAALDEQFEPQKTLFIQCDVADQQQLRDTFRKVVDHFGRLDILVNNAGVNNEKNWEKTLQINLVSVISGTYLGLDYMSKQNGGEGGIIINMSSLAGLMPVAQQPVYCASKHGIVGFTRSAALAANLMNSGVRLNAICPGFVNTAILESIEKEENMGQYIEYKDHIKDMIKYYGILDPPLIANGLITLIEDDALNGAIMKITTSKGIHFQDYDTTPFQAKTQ

| IC50 (15-PGDH/HPGD) | Solubility: Solubility at pH 7.4 (μM) (Solubility at pH 7.4) | HLM + NADPH (% remaining at 45 min) [1] | RLM + NADPH (% remaining at 45 min) [2] | MLM + NADPH (% remaining at 45 min) [3] | Compound | activity in the A549 cell-based assay (FIG. 1) (A549 cells) |
| --- | --- | --- | --- | --- | --- | --- |
| < 100 nM | – | – | – | – | N#Cc1ccc(-n2ccc3cc(C(=O)N4CCC(F)CC4)cnc32)cc1 [MF-DH-342] | displayed activity |
| < 100 nM | 140 μM | 96% | 89% | – | COc1ccc(-n2cnc3cc(C(=O)N4CCC(F)CC4)cnc32)cc1 [MF-PGDH-078] | – |
| < 100 nM | 150 μM | 87% | 23% | 30% | O=C(c1cnc2c(c1)ncn2-c1cccc(Cl)c1)N1CCCCC1 [MF-PGDH-020] | – |
| < 100 nM | 140 μM | 100% | 87% | – | COc1ccc(-n2cnc3cc(C(=O)N4CCC(F)(F)CC4)cnc32)cc1 [MF-PGDH-079] | – |
| < 100 nM | 160 μM | 97% | 84% | – | COc1ccc(-n2cnc3cc(C(=O)N4CCCCC4)cnc32)cc1 [MF-PGDH-077] | – |
